Data from ChEMBL document CHEMBL4619795, “Establishing the Structure-Activity Relationship of Daptomycin” (ACS Med Chem Lett, 2020).

Experiments:
Format in all cases: functional
Enterococcus [1] = assay: Antibacterial activity against Enterococcus 60 assessed as bacterial growth inhibition in presence of 50 ug/ml calcium ions by CLSI protocol based broth microdilution method
Enterococcus [2] = assay: Antibacterial activity against Enterococcus 6 assessed as bacterial growth inhibition in presence of 50 ug/ml calcium ions by CLSI protocol based broth microdilution method
Staphylococcus aureus [3] = assay: Antibacterial activity against methicillin-resistant Staphylococcus aureus 86 assessed as bacterial growth inhibition in presence of 50 ug/ml calcium ions by CLSI protocol based broth microdilution method
Staphylococcus aureus [4] = assay: Antibacterial activity against Staphylococcus aureus ATCC 29213 assessed as bacterial growth inhibition in presence of 50 ug/ml calcium ions by CLSI protocol based broth microdilution method
Staphylococcus aureus [5] = assay: Antibacterial activity against methicillin-resistant Staphylococcus aureus 14 assessed as bacterial growth inhibition in presence of 50 ug/ml calcium ions by CLSI protocol based broth microdilution method
Staphylococcus aureus [6] = assay: Antibacterial activity against methicillin-resistant Staphylococcus aureus 88 assessed as bacterial growth inhibition in presence of 50 ug/ml calcium ions by CLSI protocol based broth microdilution method
Staphylococcus aureus [7] = assay: Antibacterial activity against methicillin-resistant Staphylococcus aureus 11 assessed as bacterial growth inhibition in presence of 50 ug/ml calcium ions by CLSI protocol based broth microdilution method
Enterococcus faecalis [8] = assay: Antibacterial activity against Enterococcus faecalis ATCC 29212 assessed as bacterial growth inhibition in presence of 50 ug/ml calcium ions by CLSI protocol based broth microdilution method
Enterococcus faecalis [9] = assay: Antibacterial activity against Streptococcus faecalis assessed as bacterial growth inhibition in presence of 50 ug/ml calcium ions by CLSI protocol based broth microdilution method

| SMILES | MIC (Enterococcus [1]) [mg/L] | MIC (Enterococcus [2]) [mg/L] | MIC (Staphylococcus aureus [3]) [mg/L] | MIC (Staphylococcus aureus [4]) [mg/L] | MIC (Staphylococcus aureus [5]) [mg/L] | MIC (Staphylococcus aureus [6]) [mg/L] | MIC (Staphylococcus aureus [7]) [mg/L] | MIC (Enterococcus faecalis [8]) [mg/L] | MIC (Enterococcus faecalis [9]) [mg/L] |
| --- | --- | --- | --- | --- | --- | --- | --- | --- | --- |
| CCCCCCCCCC(=O)N[C@@H](Cc1ccc2ccccc2c1)C(=O)N[C@@H](CC(N)=O)C(=O)N[C@@H](CC(=O)O)C(=O)N[C@@H]1C(=O)NCC(=O)N[C@@H](CCCN)C(=O)N[C@@H](CC(=O)O)C(=O)N[C@H](C)C(=O)N[C@@H](CC(=O)O)C(=O)NCC(=O)N[C@H](CO)C(=O)N[C@@H]([C@@H](C)CC(=O)O)C(=O)N[C@@H](CC(=O)c2ccccc2N)C(=O)O[C@@H]1C | 0.5 | 4 | 0.06 | 0.25 | 0.125 | 0.125 | 0.5 | 1 | 0.25 |
| CCCCCCCCCC(=O)N[C@@H](Cc1c[nH]c2ccccc12)C(=O)N[C@@H](CC(N)=O)C(=O)N[C@@H](CC(=O)O)C(=O)N[C@@H]1C(=O)NCC(=O)N[C@@H](Cc2c[nH]cn2)C(=O)N[C@@H](CC(=O)O)C(=O)N[C@H](C)C(=O)N[C@@H](CC(=O)O)C(=O)NCC(=O)N[C@H](CO)C(=O)N[C@@H]([C@@H](C)CC(=O)O)C(=O)N[C@@H](CC(=O)c2ccccc2N)C(=O)O[C@@H]1C | ≥ 32 | ≥ 32 | 8 | 8 | 16 | 8 | 16 | ≥ 32 | ≥ 32 |
| CCCCCCCCCC(=O)N[C@@H](Cc1c[nH]c2ccccc12)C(=O)N[C@@H](CC(N)=O)C(=O)N[C@@H](CC(=O)O)C(=O)N[C@@H]1C(=O)NCC(=O)N[C@@H](C)C(=O)N[C@@H](CC(=O)O)C(=O)N[C@H](C)C(=O)N[C@@H](CC(=O)O)C(=O)NCC(=O)N[C@H](CO)C(=O)N[C@@H]([C@@H](C)CC(=O)O)C(=O)N[C@@H](CC(=O)c2ccccc2N)C(=O)O[C@@H]1C | 1 | 2 | 0.5 | 0.5 | 0.25 | 1 | 0.5 | 4 | 4 |
| CCCCCCCCCC(=O)N[C@@H](Cc1c[nH]c2ccccc12)C(=O)N[C@@H](C)C(=O)N[C@@H](CC(=O)O)C(=O)N[C@@H]1C(=O)NCC(=O)N[C@@H](CCCN)C(=O)N[C@@H](CC(=O)O)C(=O)N[C@H](C)C(=O)N[C@@H](CC(=O)O)C(=O)NCC(=O)N[C@H](CO)C(=O)N[C@@H]([C@@H](C)CC(=O)O)C(=O)N[C@@H](CC(=O)c2ccccc2N)C(=O)O[C@@H]1C | 32 | 64 | ≥ 32 | ≥ 32 | ≥ 32 | 16 | ≥ 32 | 64 | 16 |
| CCCCCCCCCC(=O)N[C@@H](Cc1c[nH]c2ccccc12)C(=O)N[C@@H](CC(N)=O)C(=O)N[C@@H](CC(=O)O)C(=O)N[C@@H]1C(=O)NCC(=O)N[C@@H](CO)C(=O)N[C@@H](CC(=O)O)C(=O)N[C@H](C)C(=O)N[C@@H](CC(=O)O)C(=O)NCC(=O)N[C@H](CO)C(=O)N[C@@H]([C@@H](C)CC(=O)O)C(=O)N[C@@H](CC(=O)c2ccccc2N)C(=O)O[C@@H]1C | ≥ 32 | 32 | 2 | 2 | 4 | 1 | 4 | ≥ 32 | 4 |
| CCCCCCCCCC(=O)N[C@@H](Cc1c[nH]c2ccccc12)C(=O)N[C@@H](CC(N)=O)C(=O)N[C@@H](CC(=O)O)C(=O)N[C@@H]1C(=O)NCC(=O)N[C@@H](CCCN)C(=O)N[C@@H](CC(=O)O)C(=O)N[C@H](C)C(=O)N[C@@H]([C@H](C)CC(=O)O)C(=O)NCC(=O)N[C@H](CO)C(=O)N[C@@H](CC(=O)O)C(=O)N[C@@H](CC(=O)c2ccccc2N)C(=O)O[C@@H]1C | ≥ 32 | ≥ 32 | ≥ 32 | ≥ 32 | ≥ 32 | ≥ 32 | ≥ 32 | ≥ 32 | ≥ 32 |
| CCCCCCCCCC(=O)N[C@@H](Cc1c[nH]c2ccccc12)C(=O)N[C@@H](CC(N)=O)C(=O)N[C@@H](CC(=O)O)C(=O)N[C@@H]1C(=O)NCC(=O)N[C@@H](CCCN)C(=O)N[C@@H](CC(=O)O)C(=O)N[C@H](C)C(=O)N[C@@H](CC(=O)O)C(=O)NCC(=O)N[C@H](CO)C(=O)N[C@@H]([C@@H](C)CC(=O)O)C(=O)N[C@@H](C)C(=O)O[C@@H]1C | ≥ 32 | ≥ 32 | ≥ 32 | ≥ 32 | ≥ 32 | ≥ 32 | ≥ 32 | ≥ 32 | ≥ 32 |
| CCCCCCCCCC(=O)N[C@@H](Cc1c[nH]c2ccccc12)C(=O)N[C@@H](CC(N)=O)C(=O)N[C@@H](C)C(=O)N[C@@H]1C(=O)NCC(=O)N[C@@H](CCCN)C(=O)N[C@@H](CC(=O)O)C(=O)N[C@H](C)C(=O)N[C@@H](CC(=O)O)C(=O)NCC(=O)N[C@H](CO)C(=O)N[C@@H]([C@@H](C)CC(=O)O)C(=O)N[C@@H](CC(=O)c2ccccc2N)C(=O)O[C@@H]1C | ≥ 32 | ≥ 32 | 16 | 16 | ≥ 32 | 16 | ≥ 32 | ≥ 32 | ≥ 32 |
| CCCCCCCCCC(=O)N[C@@H](Cc1c[nH]c2ccccc12)C(=O)N[C@@H](CC(N)=O)C(=O)N[C@@H](CC(=O)O)C(=O)N[C@@H]1C(=O)NCC(=O)N[C@@H](CSSC[C@@H]2NC(=O)CNC(=O)[C@@H](NC(=O)[C@H](CC(=O)O)NC(=O)[C@H](CC(N)=O)NC(=O)[C@H](Cc3c[nH]c4ccccc34)NC(=O)CCCCCCCCC)[C@@H](C)OC(=O)[C@H](CC(=O)c3ccccc3N)NC(=O)[C@H]([C@@H](C)CC(=O)O)NC(=O)[C@@H](CO)NC(=O)CNC(=O)[C@H](CC(=O)O)NC(=O)[C@@H](C)NC(=O)[C@H](CC(=O)O)NC2=O)C(=O)N[C@@H](CC(=O)O)C(=O)N[C@H](C)C(=O)N[C@@H](CC(=O)O)C(=O)NCC(=O)N[C@H](CO)C(=O)N[C@@H]([C@@H](C)CC(=O)O)C(=O)N[C@@H](CC(=O)c2ccccc2N)C(=O)O[C@@H]1C | 16 | 16 | 8 | 16 | 4 | 16 | 8 | 16 | 4 |
| CCCCCCCCCC(=O)N[C@@H](Cc1c[nH]c2ccccc12)C(=O)N[C@@H](CC(N)=O)C(=O)N[C@@H](CC(=O)O)C(=O)N[C@@H]1C(=O)NCC(=O)N[C@@H](CCCN)C(=O)N[C@@H](CC(=O)O)C(=O)N[C@H](C)C(=O)N[C@@H](CC(=O)O)C(=O)N(C)CC(=O)N[C@H](CO)C(=O)N[C@@H]([C@@H](C)CC(=O)O)C(=O)N[C@@H](CC(=O)c2ccccc2N)C(=O)O[C@@H]1C | ≥ 32 | ≥ 32 | ≥ 32 | ≥ 32 | ≥ 32 | ≥ 32 | ≥ 32 | ≥ 32 | ≥ 32 |
| CCCCCCCCCC(=O)N[C@@H](Cc1c[nH]c2ccccc12)C(=O)N[C@@H](CC(N)=O)C(=O)N[C@@H](CC(=O)O)C(=O)N[C@@H]1C(=O)NCC(=O)N[C@@H](Cc2ccc(O)cc2)C(=O)N[C@@H](CC(=O)O)C(=O)N[C@H](C)C(=O)N[C@@H](CC(=O)O)C(=O)NCC(=O)N[C@H](CO)C(=O)N[C@@H]([C@@H](C)CC(=O)O)C(=O)N[C@@H](CC(=O)c2ccccc2N)C(=O)O[C@@H]1C | 16 | ≥ 32 | 4 | 1 | 0.5 | 4 | 1 | ≥ 32 | ≥ 32 |
| CCCCCCCCCC(=O)N[C@@H](Cc1c[nH]c2ccccc12)C(=O)N[C@@H](CC(N)=O)C(=O)N[C@@H](CC(=O)O)C(=O)N[C@@H]1C(=O)NCC(=O)N[C@@H](CCCCN)C(=O)N[C@@H](CC(=O)O)C(=O)N[C@H](C)C(=O)N[C@@H](CC(=O)O)C(=O)NCC(=O)N[C@H](CO)C(=O)N[C@@H]([C@@H](C)CC(=O)O)C(=O)N[C@@H](CC(=O)c2ccccc2N)C(=O)O[C@@H]1C | 16 | ≥ 32 | 1 | 1 | ≥ 32 | 1 | 16 | ≥ 32 | 8 |
| CCCCCCCCCC(=O)N[C@@H](C)C(=O)N[C@@H](CC(N)=O)C(=O)N[C@@H](CC(=O)O)C(=O)N[C@@H]1C(=O)NCC(=O)N[C@@H](CCCN)C(=O)N[C@@H](CC(=O)O)C(=O)N[C@H](C)C(=O)N[C@@H](CC(=O)O)C(=O)NCC(=O)N[C@H](CO)C(=O)N[C@@H]([C@@H](C)CC(=O)O)C(=O)N[C@@H](CC(=O)c2ccccc2N)C(=O)O[C@@H]1C | ≥ 64 | ≥ 64 | ≥ 32 | ≥ 32 | ≥ 32 | ≥ 32 | ≥ 32 | ≥ 64 | ≥ 64 |
| CCCCCCCCCC(=O)N[C@@H](Cc1c[nH]c2ccccc12)C(=O)N[C@@H](CC(N)=O)C(=O)N[C@@H](CC(=O)O)C(=O)N[C@@H]1C(=O)NCC(=O)N[C@@H](Cc2ccccc2)C(=O)N[C@@H](CC(=O)O)C(=O)N[C@H](C)C(=O)N[C@@H](CC(=O)O)C(=O)NCC(=O)N[C@H](CO)C(=O)N[C@@H]([C@@H](C)CC(=O)O)C(=O)N[C@@H](CC(=O)c2ccccc2N)C(=O)O[C@@H]1C | ≥ 32 | ≥ 32 | 16 | 16 | ≥ 32 | 16 | ≥ 32 | ≥ 32 | ≥ 32 |
